This note sets out measurements from patent US20220073557A1, “FLUORINATED BILE ACIDS” (NZP UK LIMITED, priority 2018, published 2022).

As usually defined, the EC50 is the concentration needed to bring the measured effect to its halfway point.

Molecules are shown by their SMILES. Counter-ions that a name gives are not always drawn.

Assay [1] deals with sporadic PD patient fibroblasts. Nature of the assay: Mitochondrial membrane potential (MMP, TMRM) in sporadic PD patient fibroblasts. It is filed as cell-based. The conditions noted are these: Homo sapiens, Fibroblast, 24 h; for activity at 0.3 µM: read-out: MMP Top (% of vehicle treated); for activity at 60 pM: read-out: MMP Bottom (% of vehicle treated). As for the experimental part:
(§1) Fibroblasts were cultured in DMEM (Invitrogen) and routinely subcultured every 3-5 days using trypsin to dissociate them.
Fibroblasts were cultured and plated into a Griener black 384 pClear® plate at 10000 cells per well in 50 μl of media volume. The plates are left overnight in an incubator to allow the fibroblasts to adhere to the plate surface. The following morning the Glucose based medium is replaced with 25 μl of Galactose based media. The plates were then dosed with the compounds using an ECHO® 550 liquid handling system. The wells were dosed to provide an 8-point concentration range of 0.06 nM-300 nM of compound. After dosing the wells are topped up with a further 25 μl of Galactose based medium and then left in an incubator for 24 hours. After 24 hours, the medium is removed from the wells and replaced with 25 ul phenol free Minimal essential medium with 100 nM TMRM (Sigma) and 10 μM Hoechst Stain (Sigma). The plate is returned to the incubator for another hour after which the stain medium is removed and replaced with 25 ul Phenol free MEM. The plate is then imaged using an IN Cell high content microscope (GE Healthcare) with 10 fields of view per well in 2 channels, Cy3 excitation 542 nm, emission 604-64 nm; and the DAPI excitation 350 nm, emission 450-55 nm at 37° C. with CO2. After imaging the plate is disposed of and the images are Data mined using the INCell developer Toolkit (GE Healthcare).
(§2) After the assays had been repeated in triplicate per line and compound the data was then inputted into Graph pad Prism 7 software suite where a dose response curve is generated using the default “[Agonist] vs response (three parameters)” equation.
(§3) From this EC50 values, lowest response and maximal response were taken and used to calculate the Geometric mean between the 5 different lines assessed.
The mitochondrial membrane potential was measured in fibroblasts from 6 (Table 1) or 3 (Table 2) patients with sporadic Parkinson's disease when treated with Compounds of the invention or Comparator compounds. The results are shown in Tables 1 and 2, where “Bottom”=max response with lowest dose of compound (0.06 nM) and “top”=max response with highest dose of compound (300 nM).

For assay [2] the test system is unchanged. The assay can be described thus: Cellular ATP levels (ATPlite, normalised to CyQUANT DNA content) in sporadic PD patient fibroblasts. It is filed as cell-based. The conditions noted are these: Homo sapiens, Fibroblast, 24 h; for activity at 0.3 µM: read-out: Cellular ATP levels Top (% of vehicle treated); for activity at 60 pM: read-out: Cellular ATP levels Bottom (% of vehicle treated). As for the experimental part: as §1
The ATP protocol is generally as described in Mortiboys et al, “Mitochondrial function and morphology are impaired in parkin-mutant fibroblasts”, Ann Neurol. 2008 November; 64(5):555-65. Briefly, fibroblasts were cultured as and plated into white 384 well plates with 5000 cells per well in 50 μl of media volume. The plates are left overnight in an incubator to allow the fibroblasts to adhere to the plate surface. The following morning the Glucose based medium is replaced with 25 μl of Galactose based medium. The compounds are added to the plates using a ECHO 550 liquid handling system. The wells were dosed to provide an 8-point concentration range of 0.06 nM-300 nM of compound. After dosing the wells are topped up with a further 25 μl of Galactose based medium and then left in an incubator for 24 hours. Following this incubation the medium is removed from the plate and the wells are washed twice with sterile PBS. The wells are filled with 25 μl of Sterile PBS followed by 12.5 μl of Lysis solution from the ATPlite™ Luminescence ATP detection assay system (Perkin Elmer), including 16 cell free wells to use as blank controls. The plate is then placed on a rotary shaker for 5 mins at 700 rpm. Following the shaking 12.5 μl of ATP substrate solution (Perkin Elmer) is added to each well and a further 5 min of shaking. The plate is then placed in darkness for 10 minutes prior to reading. Using a PHERAStar® plate reader, luminescence intensity is recorded. Following the ATP assay the plates are immediately assayed for DNA content in a CyQUANT® assay.
Immediately following The ATP assay DNA content is assessed with the CyQUANT® NF Cell Proliferation Assay Kit (ThermoFisher). CyQUANT® buffer is prepared immediately before the assay and is comprised of 1 ul CyQUANT® dye per ml×1 HBSS solution. 12.5 ul of CyQUANT® buffer is added to each well. Plate left in incubator for 1 hour then read on a PHERAStar® Plate reader with excitation at 497 nm and emission at 520 nm. ATP Quantification for each well is determined using the following formula: […]
as §2, §3
Cellular ATP levels were measured in fibroblasts from 6 (Table 3) or 3 (Table 4) patients with sporadic Parkinson's disease when treated with Compounds of the invention or Comparator compounds. The results are shown in Tables 3 and 4, where “Bottom”=max response with lowest dose of compound (0.06 nM) and “top”=max response with highest dose of compound (300 nM).

Assay [3] has as its system sAD and familial AD (PSEN1 mutants) patient fibroblasts. Nature of the assay: Total cellular ATP levels in Alzheimer's disease patient fibroblasts. It is filed as cell-based, human. The conditions noted are these: 24 hour treatment at 100 nM, 21% restores to control levels.
Protocol: Data shown in the Table 6 below is the mean increase in ATP levels after 24 hour treatment with compounds at 100 nM concentration.
In assay [4] the test system is mitochondrial respiratory chain complex I. Nature of the assay: Complex I assay, left striatum brain homogenate of mice dosed with or without MPTP. It is filed as in vivo, mouse. Conditions: left striatum mouse brain homogenate; MPTP alone; FIG. 4. As for the experimental part:
Ex vivo mice brain was homogenated in a buffer of 250 mM sucrose, 20 mM HEPES, 3 mM EDTA, pH 7.5 at 4° C. Homogenisation was carried out using a Dounce homogenizer, for cortex samples, and by repetitive passage through a 0.5 mm syringe for isolated striatum. Samples were then incubated with 30 μl of detergent from the AbCam colorimetric Complex I assay kit on ice for 20 minutes. Samples are then centrifuged at 13,000 rpm for 30 mins. Triplicate samples per condition were blocked using the kit blocking buffer on the AbCam colorimetric Complex I assay kit plate for 3 hours. Samples are then washed using the kit wash buffer 3 times before the addition of the kit assay buffer containing NADH and colorimetric dye. The assay plate is read on a plate reader in a kinetic assay programme reading 450 nm in a 30 second interval for 50 minutes.

[5] abbreviates: 6 sporadic PD patient fibroblasts, read-out: MMP EC50.
Setting [6] is: max response with highest dose (300 nM), 6 sporadic PD patient fibroblasts.
[7] abbreviates: max response with lowest dose (0.06 nM), 6 sporadic PD patient fibroblasts.
[8] abbreviates: 6 sporadic PD patient fibroblasts, read-out: Cellular ATP levels EC50.
The mark [9] stands for this setting: read-out: Cellular ATP levels EC50 (nM).

As for `C[C@H](CCC(=O)O)[C@H]1CC[C@H]2[C@@H]3[C@H](O)C[C@@H]4C[C@@H](O)[C@@H](F)C[C@]4(C)[C@H]3CC[C@]12C` [Compound 2, 2β-fluoro-3β,7α-dihydroxy-5β-cholanic acid], the EC50 in assay [1] (setting [5]) worked out at 20.8 nM; in assay [2] (setting [8]), 1.08 nM. Further, the results for the activity at 0.3 µM in assay [1] (setting [6]) and in assay [2] (setting [6]) were 112% and 113%, respectively. The activity at 60 pM in assay [1] (setting [7]) was found to be 107%; in assay [2] (setting [7]), 79.9%. For the same molecule, in assay [3], the “% increase over vehicle treated (mean increase in ATP levels)” value was 65%.

On to `C[C@H](CCC(=O)O)[C@H]1CC[C@H]2[C@@H]3[C@H](O)C[C@@H]4C[C@H](O)C(F)(F)C[C@]4(C)[C@H]3CC[C@]12C` [Compound 8, 2,2-difluoro-3α,7α-dihydroxy-5β-cholanic acid], for which the “% increase over vehicle treated (mean increase in ATP levels)” value in assay [3] was 65%.

For `C[C@H](CCC(=O)O)[C@H]1CC[C@H]2[C@@H]3C(=O)C[C@@H]4CC(=O)C(F)=C[C@]4(C)[C@H]3CC[C@]12C` [Compound G, 2-fluoro-3,7-dioxo-5β-chol-1-enic acid, reference compound], the EC50 in assay [1] (setting [5]) came to 282 nM; in assay [2] (setting [8]), 58.4 nM. The activity at 0.3 µM in assay [1] (setting [6]) was found to be 123%; in assay [2] (setting [6]) it was 92.7%. Besides, the activity at 60 pM stood at 103% in assay [1] (setting [7]) and 83.3% in assay [2] (setting [7]).

Turning to `C[C@H](CCC(=O)O)[C@H]1CC[C@H]2[C@@H]3[C@@H](O)C[C@@H]4C[C@H](O)C(F)(F)C[C@]4(C)[C@H]3CC[C@]12C` [Compound 9, 2,2-difluoro-3α,7β-dihydroxy-5β-cholanic acid], the activity at 60 pM in assay [1] came out at 110%; in assay [2], 99%. Besides, the EC50 turned out to be 2.19 nM in assay [1] (read-out: MMP EC50 (nM)) and 21.3 nM in assay [2] (setting [9]). The activity at 0.3 µM in assay [1] came to 112%; in assay [2], 103%.

For the molecule `C[C@H](CCC(=O)NCCOS(=O)(=O)O)[C@H]1CC[C@H]2[C@@H]3[C@@H](O)C[C@@H]4C[C@@H](O)C(F)(F)C[C@]4(C)[C@H]3CC[C@]12C` [Compound 22, Sodium N-(2,2-difluoro-3β,7β-dihydroxy-5β-cholan-24-oyl)-2-aminoethyl sulfate], the activity at 60 pM in assay [1] turned out to be 99.3%; in assay [2], 95.9%. Besides, the results for the EC50 in assay [1] (read-out: MMP EC50 (nM)) and in assay [2] (setting [9]) were 45.4 nM and 6.2 nM, respectively. Besides, the activity at 0.3 µM in assay [1] was 146%; in assay [2], 116%.

`CN1CC=C(c2ccccc2)CC1` [MPTP, 1-methyl-4-phenyl-1,2,3,6-tetrahydropyridine, reference compound]: in assay [4], the “Reduction in complex I activity compared with untreated controls” value worked out at 50%.
